Legend:
[1] = system: HEp-2; assay: Ability to inhibit growth of human epithelial (H.Ep.-2) cells in culture; format: functional, cell-based; settings: read-out: I50
[2] = system: L1210; assay: Ability to inhibit growth of L1210 cells in culture was determined.; format: functional, cell-based; settings: Mus musculus, read-out: I50

SMILES | IC50 [1] [nM] | IC50 [2] [nM]
[N-]=[N+]=CC(=O)C1=NNC([C@@H]2O[C@H](CO)[C@@H](O)[C@H]2O)C1=N (stereo partly drawn) | 2000 | 3000
CC(=O)c1ncn([C@@H]2O[C@H](CO)[C@@H](O)[C@H]2O)c1N | – | > 120000

From ChEMBL document CHEMBL1123682, “5-Amino-4-(diazoacetyl)-1-beta-D-ribofuranosylimidazole, a new antileukemic agent” (J Med Chem, 1987)
